# Experimental data from ChEMBL document CHEMBL1158290, “Two fungal lanostane derivatives as phospholipase A2 inhibitors” (J Nat Prod, 1996).
# Legend:
# [1] = target: Acidic phospholipase A2 2 (Naja naja, UniProt P15445); assay: Inhibition of snake venom phospholipase A2 assessed as oxygen consumption for 3 mins
# [2] = target: Acidic phospholipase A2 2 (Naja naja) (UniProt P15445); assay: Inhibition of snake venom phospholipase A2 at 3.700 mM assessed as oxygen consumption for 3 mins
# [3] = target: Acidic phospholipase A2 2 (Naja naja) (UniProt P15445); assay: Inhibition of snake venom phospholipase A2 at 1 mM assessed as oxygen consumption for 3 mins
# [4] = target: Acidic phospholipase A2 2 (Naja naja) (UniProt P15445); settings: 5.800 mM
# Description: Inhibition of snake venom phospholipase A2 at 5.800 mM assessed as oxygen consumption for 3 mins
# Chain of Acidic phospholipase A2 2 (P15445 whole entry): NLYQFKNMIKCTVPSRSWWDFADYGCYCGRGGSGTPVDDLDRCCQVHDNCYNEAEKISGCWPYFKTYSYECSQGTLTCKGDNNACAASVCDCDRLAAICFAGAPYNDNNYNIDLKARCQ
# Chain of Acidic phospholipase A2 2 (Naja naja) (P15445 whole entry): as above
SMILES,IC50 [1],inhibition [2],inhibition [3],inhibition [4]
C=C(CC[C@@H](C(=O)O)[C@H]1[C@H](O)C[C@@]2(C)C3=C(CC[C@]12C)[C@@]1(C)CC[C@H](OC(C)=O)C(C)(C)[C@@H]1CC3)C(C)C [PACHYMIC ACID],2900 µM,66%,–,–
C=C(CC[C@@H](C(=O)O)[C@H]1[C@H](O)C[C@@]2(C)C3=CC[C@H]4C(C)(C)[C@@H](O)CC[C@]4(C)C3=CC[C@]12C)C(C)C [DEHYDROTUMULOSIC ACID],845 µM,–,58.6%,–
CCN(CC)CCCC(C)Nc1c2ccc(Cl)cc2nc2ccc(OC)cc12 (stereo unspecified) [QUINACRINE],2160 µM,–,–,85.5%
